In article PMC9259647 (Scientific Reports, 2022):
Read-outs that look alike come from different tables or passages of the source.

How the values were obtained:
HXYN2 [1] = target: T1, HXYN2 (Humicola insolens, UniProt P55334); assay: Effect of phenolic compounds on HXYN2 activity (DNS xylanase assay); format: biochemical, Humicola grisea var. thermoidea; details: for activating effect on HXYN2 activity: after 0 and 24 h of incubation
T1 construct: made in house; host or cells: Pichia pastoris GS115 (vector pHIL-D2), purified from culture supernatant
T1 sequence (P55334 20-227): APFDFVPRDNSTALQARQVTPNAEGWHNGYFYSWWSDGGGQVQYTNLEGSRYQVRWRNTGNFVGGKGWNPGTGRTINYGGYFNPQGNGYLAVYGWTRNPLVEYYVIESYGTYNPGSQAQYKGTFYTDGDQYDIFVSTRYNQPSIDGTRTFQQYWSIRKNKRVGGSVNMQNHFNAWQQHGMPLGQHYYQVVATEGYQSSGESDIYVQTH

[2] = system: GH10 xylanase from Penicillium chrysogenum; set-up: method as in PMID 30654038; details: oat spelt xylan as a substrate; cited from earlier work
[3] = system: GH11 xylanase from Aspergillus tamarii; details: birchwood xylan as a substrate; cited from earlier work
[4] = system: fungal cellulases and β-glucosidase; set-up: method as in PMID 22112771; details: cited from earlier work
HXYN2 [5] = target: T1, HXYN2; assay: Isothermal titration calorimetry of HXYN2 with FA; format: binding, Humicola grisea var. thermoidea
Procedure: An initial spacing setting of 500 s and an initial injection of 2 µL were employed. The following 12 injections of 5 µL were performed with an interval spacing of 600 s. The final 16 injections comprised 10 µL, with an interval spacing of 600 s.
The heat released after each injection was calculated from the raw data by integration of the peaks after subtraction of the baseline. The binding isotherms were fitted to different models using the software ORIGIN v7 (OriginLab, Northampton, MA, USA) provided by MicroCal. The best fit was determined using only two parameters, namely the binding constant (K) and enthalpy (H) on each site, following selction of the total number of sites. […] Changes in Gibbs free energy (ΔG) were calculated by Eq. (3):3 ΔG=-RTlnKa=ΔH-TΔS

HXYN2 [6] = target: T1, HXYN2; assay: Fluorescence quenching of HXYN2 by FA; format: binding, Humicola grisea var. thermoidea; details: range, acidic to basic pH
Procedure: HXYN2 in complex with FA was investigated by fluorescence quenching as a function of pH. Trp and Trp-Tyr emission measurements were performed at 25 °C, in triplicate, after excitation at 295 nm and 275 nm, respectively. Protein fluorescence emission was recorded in the range of 300 to 450 nm. A path length quartz cuvette of 1 cm and excitation and emission slit width of 5 nm were employed. Data intervals of 1 nm, gain medium, a response time of 2 s, and a scanning speed of 50 nm/min were used with two averaged spectra accumulations. Fluorescence quenching of 0.43 µM HXYN2 with 0 to 23.68 µM FA in 95% ethanol and 0.05 M of sodium acetate buffer at pH 4.0 and 0.05 M of Tris–HCl at pH 7.0 and pH 9.0 was performed using a Jasco ATS-443 Automatic titration (Jasco Analytical Instrument, Tokyo, Japan). The fluorescence intensity background and dilution were corrected. The Stern–Volmer linear regression (Eq. 4) of the relative […] of fluorescence intensity at 334 nm (F/F0) versus FA concentration was used to describe the fluorescence quenching of Trp accessible to the quencher[52]:4 F0/F=1+Kq∗τ0Q=1+KSVQ where F and F0 are the fluorescence intensities at 334 nm, in the presence and absence of FA, respectively, Q is the concentration of the quencher, and Ksv is the Stern–Volmer constant. […]

HXYN2 [7] = assay: CD thermal unfolding of HXYN2 in the presence of FA; set-up: species or system Humicola grisea var. thermoidea; details: pH 6.0, FA 60 µM; 63.5 °C without FA
Procedure: Thermostability assays of HXYN2 were performed at pH 4.0, 6.0, 7.0 and 9.0 at 218 nm, corresponding to the structured region of β-sheet, with temperature ranging from 25 to 95 °C and data collection of 0.2 °C/min. In addition, the CD spectra were recorded at a step size of 0.2 nm at intervals of 10 °C using the same parameters described above. Thermal denaturation curves were plotted considering the molar ellipticity values (θ) versus temperature. The unfolded status of the protein (Fu) was calculated by Eq. (6):6 Fu=yN-y/yN-yU where, yN and yU represent the values of y (into molar ellipticity) characteristic of the folded and unfolded states, respectively. The normalized unfolding curves were adjusted using the Boltzmann equation and the Origin 8.1 software (OriginLab Corporation, Northampton, MA, USA) from which the melting temperature (Tm) was estimated.
The effect of FA on the secondary structure content of HXYN2 was also investigated by CD. Assays were performed with protein at concentration of 0.15 mg/mL in 5 mM Bis–Tris pH 6.0 and FA at concentration of 60 µM. A quartz cuvette of 0.05 cm path length was used to record the Far-UV CD spectra in the range from 260 to 190 nm at 25 °C. Thermostability assays of HXYN2 in the presence of FA at pH 6.0 were also performed, using the same parameters described above.

HXYN2 [8] = system: HXYN2

O=C(O)c1cc(O)c(O)c(O)c1 [gallic acid]
activating effect on HXYN2 activity (HXYN2 [1]; 1 mg/mL): 20–75%

O=C(O)c1ccc(O)cc1 [4-hydroxybenzoic acid]
activating effect on HXYN2 activity (HXYN2 [1]; 1 mg/mL): 20–75%

O=C(O)/C=C/c1ccc(O)cc1 [p-coumaric acid]
activating effect on HXYN2 activity (HXYN2 [1]; 1 mg/mL): 20–75%

O=C(O)/C=C/c1ccccc1 [trans-cinnamic acid]
activating effect on HXYN2 activity (HXYN2 [1]; 1 mg/mL): 20–75%

COc1cc(C=O)ccc1O [vanillin]
activating effect on HXYN2 activity (HXYN2 [1]; 1 mg/mL): 20–75%

COc1cc(C=O)cc(OC)c1O [syringaldehyde]
activating effect on HXYN2 activity (HXYN2 [1]; 1 mg/mL): 20–75%

tannic acid
reduction in HXYN2 activity (HXYN2 [1]; 1 mg/mL, pre-incubation 0 h): 26% | reduction in HXYN2 activity (HXYN2 [1]; 1 mg/mL, pre-incubation 24 h): 59% | deactivating effect on HXYN2 (HXYN2 [1]; after 24 h of incubation): ~59% | inhibitory effect [2]: 17% | increase in the activity [3]: 12% | inhibition [4]: up to 80%

COc1cc(/C=C/C(=O)O)ccc1O [FA, 3-(4-hydroxy-3-methoxy-phenyl-prop-2-enoic)]
increase in enzymatic activity of HXYN2 in comparison to the control (HXYN2 [1]; 1 mg/mL, 0 and 24 h of incubation, beechwood xylan): 60–75% | activation at 1000 µg/mL (HXYN2 [1]; 24 h, read-out: activating effect on HXYN2, after 24 h of incubation): ~75% | activation at 1000 µg/mL (HXYN2 [1]; read-out: activating effect on HXYN2 activity, 1 mg/mL, after 0 and 24 h of incubation): 20 to 75% | activation at 1000 µg/mL (HXYN2 [1]; read-out: increase in enzymatic activity of HXYN2 in comparison to the control, 1 mg/mL, 0 and 24 h of incubation, beechwood xylan): 75% | Kd (HXYN2 [5]; Kd, binding sites 2 and 4): ~2500 nM | K (binding constant) (HXYN2 [5]; binding site 1, pH 6.0, 298 °K): 14.70 10^6 M^-1 | binding constant (HXYN2 [5]; binding sites 2 and 4): ~ 0.4 × 10^6 M^−1 | Kd (HXYN2 [5]; dissociation constant (Kd), range over four sites): 68 to 2320 nM | Gibbs free energy (HXYN2 [5]; range over four sites): −5.5 to −10.0 kcal/mol | bimolecular quenching constant, Kq (HXYN2 [6]): 3.2e+11 to 6.5e+11 M⁻¹ s⁻¹ | Tm of HXYN2 in the presence of FA (HXYN2 [7]): 54.1 °C | Vmax (HXYN2 [8]; FA 0.25 mg/mL): 56.71 ± 1.11 µmol/min | kcat (HXYN2 [8]; FA 0.25 mg/mL): 2.363 s⁻¹ | Vmax (HXYN2 [8]; FA 0.5 mg/mL): 117.21 ± 1.26 µmol/min | kcat (HXYN2 [8]; FA 0.5 mg/mL): 4.8837 s⁻¹ | Vmax (HXYN2 [8]; FA 1 mg/mL): 167.22 ± 8.12 µmol/min | kcat (HXYN2 [8]; FA 1 mg/mL): 6.9678 s⁻¹
